Experimental data from patent publication US20230031406A1, “COMPOUNDS AND COMPOSITIONS FOR TREATING CONDITIONS ASSOCIATED WITH NLRP ACTIVITY” (Novartis AG, priority 2018, published 2023).
Like-named read-outs stand apart in the source and are kept apart here.

System: PMA-differentiated THP-1 cells
Assay: IL-1β production in PMA-differentiated THP-1 cells stimulated with gramicidin (hTHP-1 assay containing 2% fetal bovine serum; Procedures 1 and 2)
Type: cell-based, human
Summary of the method: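 PMA 20 ng/ml 16-18 h → trypsinise → 50,000 cells/well, RPMI/2% FBS; cpd 1 h (11-pt, 100–0.0017 μM; DMSO 0.37%); gramicidin 5 μM, 2 h; spin; supernatant IL-1β via HTRF.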

[1] = Table B3, hTHP-1 assay, 2% fetal bovine serum, class symbols, read-out: IC50
[2] = Homo sapiens, THP-1, Table B1, 2% fetal bovine serum, class symbols, read-out: Average IC50 of compounds in hTHP-1 assay: hTHP-1 IC50
[3] = Table B1, 2% fetal bovine serum, class symbols, read-out: Average IC50 of compounds in hTHP-1 assay: hTHP-1 IC50
[4] = Table B2, 2% fetal bovine serum, class symbols, read-out: hTHP-1 IC50
[5] = Homo sapiens, THP-1, Table B2, 2% fetal bovine serum, numeric bounds, read-out: hTHP-1 IC50
[6] = Homo sapiens, THP-1, Table B3, hTHP-1 assay, 2% fetal bovine serum, class symbols, read-out: IC50
[7] = Homo sapiens, THP-1, Table B2, 2% fetal bovine serum, class symbols, read-out: hTHP-1 IC50

Q: How did the IC50 (Homo sapiens, THP-1, Table B1, 2% fetal bovine serum, numeric bounds, read-out: Average IC50 of compounds in hTHP-1 assay: hTHP-1 IC50) turn out when `CNS(=O)(=NC(=O)Nc1c2c(nc3c1CCC3)CCC2)c1ccc(CN(C)C)cc1` (single isomer, unassigned) [Compound 120a, (R) or (S)-4-((dimethylamino)methyl)-N′-((1,2,3,5,6,7-hexahydro-dicyclopenta[b,e]pyridin-8-yl)carbamoyl)-N-methylbenzene-sulfonimidamide] was run?
A: The IC50 was over 30 µM.

Q: With `CC(C)n1cc(F)c(S(N)(=O)=NC(=O)Nc2c3c(nc4c2CCC4)CCC3)n1` (stereo not shown) [Example 750, 4-Fluoro-N′-((1,2,3,5,6,7-hexahydrodicyclopenta[b,e]pyridin-8-yl)carbamoyl)-1-isopropyl-1H-pyrazole-3-sulfomidamide] as the compound, how does the IC50 (Homo sapiens, THP-1, Table B4, 2% fetal bovine serum, class symbols, read-out: hTHP-1 IC50) read?
A: The IC50 was 0.2 to 1 µM.

Q: How did the IC50 [1] turn out when `CCc1c(C(F)(F)F)nc2c(c1NC(=O)N=S(N)(=O)c1nn(C(F)F)cc1F)CCC2` (single isomer, unassigned) [Example 710, (S) or (R)-1-(difluoromethyl)-N′-((3-ethyl-2-(trifluoromethyl)-6,7-dihydro-5H-cyclopenta[b]pyridin-4-yl)carbamoyl)-4-fluoro-1H-pyrazole-3-sulfonimidamide] was run?
A: Its IC50 is 5 to 30 µM.

Q: `CC(C)c1nc(C(F)(F)F)nc(C(C)C)c1NC(=O)N=S(N)(=O)c1sc(C(C)(C)O)nc1CO` (stereo not shown) [Compound 179, N′-((4,6-diisopropyl-2-(trifluoromethyl)pyrimidin-5-yl)carbamoyl)-4-(hydroxymethyl)-2-(2-hydroxypropan-2-yl)thiazole-5-sulfonimidamide] was tested. Which IC50 [2] did it give?
A: The IC50 was 1 to 5 µM.

Q: Which IC50 [2] does the source give for `Cc1nc2c(c(NC(=O)N=S(N)(=O)c3cnc(C(C)(C)O)s3)c1C(C)C)CCC2` (stereo not shown) [Compound 116, 2-(2-hydroxypropan-2-yl)-N′-((3-isopropyl-2-methyl-6,7-dihydro-5H-cyclopenta[b]pyridin-4-yl)carbamoyl)thiazole-5-sulfonimidamide] here?
A: The IC50 was 5 to 30 µM.

Q: For `Cc1c(C2CC2)nc2c(c1NC(=O)N=S(N)(=O)c1sc(C(C)(C)O)cc1F)CCC2` (single isomer, unassigned) [Compound 174b, (S) or (R)-N′-((2-cyclopropyl-3-methyl-6,7-dihydro-5H-cyclopenta[b]pyridin-4-yl)carbamoyl)-3-fluoro-5-(2-hydroxypropan-2-yl)thiophene-2-sulfonimidamide], which IC50 [3] is on record?
A: Its IC50 is 0.04 to 0.2 µM.

Q: With `CCC1CCc2c1nc1c(c2NC(=O)N=S(N)(=O)c2cnc(C(C)(C)O)s2)CCC1` (single isomer, unassigned) [Compound 662d, (R, R) or (R, S) or (S, R) or (S, S)-N′-((3-Ethyl-1,2,3,5,6,7-hexaliydrodicyclopenta [b,e]pyridin-8-yl)caibamoyl)-2-(2-hydroxypropan-2-yl)thiazole-5-sulfonimidamide] as the compound, how does the IC50 [4] read?
A: Its IC50 is 5 to 30 µM.

Q: For `CC(C)(O)c1cnc(S(N)(=O)=NC(=O)Nc2c3c(nc4c2CCC4(C)C)CCC3)s1` (single isomer, unassigned) [Compound 686a, (S) or (R)-N′-((3,3-dimethyl-1,2,3,5,6,7-hexahydrodicyclopenta [b,e]pyridin-8-yl)carbamoyl)-5-(2-hydroxypropan-2-yl)thiazole-2-sulfonimidamide], which IC50 [4] is on record?
A: The IC50 was 0.2 to 1 µM.

Q: Which IC50 [5] does the source give for `CCC1CCc2c1nc1c(c2NC(=O)N=S(N)(=O)c2cnc(C(C)(C)O)s2)CCC1` (single isomer, unassigned) [Compound 662b, (S, R) or (S, S) or (R, S) or (R, R)-N′-((3-Ethyl-1,2,3,5,6,7-hexaliydrodicyclopenta [b,e]pyridin-8-yl)caibamoyl)-2-(2-hydroxypropan-2-yl)thiazole-5-sulfonimidamide] here?
A: The IC50 was over 30 µM.

Q: With `CC(C)c1ncc(F)c(C(C)C)c1NC(=O)N=S(N)(=O)c1nc(C(C)(C)O)cs1` (single isomer, unassigned) [Compound 163a, (R) or (S)-N′-((5-fluoro-2,4-diisopropylpyridin-3-yl)carbamoyl)-4-(2-hydroxypropan-2-yl)thiazole-2-sulfonimidamide] as the compound, how does the IC50 [3] read?
A: Its IC50 is 0.04 to 0.2 µM.

Q: For `CC1CCc2c1nc1c(c2NC(=O)N=S(N)(=O)c2ccc(CN(C)C)cc2)CCC1` (single isomer, unassigned) [Compound 134bb, (R,S) or (R,R)-4-((dimethyl-amino)methyl)-N′-((3-methyl-1,2,3,5,6,7-hexa-hydrodicyclo-penta[b,e]pyridin-8-yl)carbamoyl)benzene-sulfonamidamide], which IC50 [3] is on record?
A: The IC50 was 5 to 30 µM.

Q: `CCn1cc(F)c(S(N)(=O)=NC(=O)Nc2c(C)c(C(F)(F)F)nc3c2CC(C)C3)n1` (single isomer, unassigned) [Compound 1101a] was tested. Which IC50 (Homo sapiens, THP-1, read-out: hTHP-1 IC50 in 2% FBS, hTHP-1 assay containing 2% fetal bovine serum, Table B5) did it give?
A: Its IC50 is 0.04 to 0.2 µM.

Q: `CC(O)c1nc(C(C)(C)O)sc1S(=N)(=O)NC(=O)Nc1c2c(nc3c1CCC3)CCC2` (single isomer, unassigned) [Compound 643b, (S, R/S) or (R, R/S)-N-((1,2,3,5,6,7-hexahydrodicyclopenta [b,e]pyridin-8-yl)carbamoyl)-4-(1-hydroxyethyl)-2-(2-hydroxypropan-2-yl) thiazole-5-sulfonimidamide] was tested. Which IC50 [4] did it give?
A: Its IC50 is 5 to 30 µM.

Q: How did the IC50 [6] turn out when `CN[C@H]1COc2c(S(N)(=O)=NC(=O)Nc3c(C)c(C(F)(F)F)nc4c3CCC4)cnn2C1` (stereo partly drawn) [Example 580, (6R)-N′-((3-methyl-2-(trifluoromethyl)-6,7-dihydro-5H-cyclopenta[b]pyridin-4-yl)carbamoyl)-6-(methylamino)-6,7-dihydro-5H-pyrazolo[5,1-b][1,3]oxazine-3-sulfonimidamide] was run?
A: The IC50 was 1 to 5 µM.

Q: `Cc1c(C(F)(F)F)nc2c(c1NC(=O)N=S(N)(=O)c1cnn(C(F)F)c1)CCC2` (single isomer, unassigned) [Compound 617a, (R) or (S)-1-(Difluoromethyl)-N′-((3-methyl-2-(trifluoromethyl)-6,7-dihydro-5H-cyclopenta[b]pyridin-4-yl)carbamoyl)-1H-pyrazole-4-sulfonimidamide] was tested. Which IC50 [7] did it give?
A: The IC50 was 5 to 30 µM.

Q: `CC(C)(O)c1ncc(S(N)(=O)=NC(=O)Nc2c3c(nc4c2CC4)CCC3)s1` (stereo not shown) [Compound 672, 2-(2-Hydroxypropan-2-yl)-N′-((2,4,5,6-tetrahydro-1H-cyclobuta[b]cyclopenta[e]pyridin-7-yl)carbamoyl)thiazole-5-sulfonimidamide] was tested. Which IC50 [7] did it give?
A: The IC50 was 5 to 30 µM.

Q: How did the IC50 [1] turn out when `CC(C)(O)c1cc(F)c(S(N)(=O)=NC(=O)Nc2c3c(nc(C4CC4)c2C2CC2)CCC3)s1` (single isomer, unassigned) [Example 698, (S) or (R)-N′-((2,3-dicyclopropyl-6,7-dihydro-5H-cyclopenta[b]pyridin-4-yl)carbamoyl)-3-fluoro-5-(2-hydroxypropan-2-yl) thiophene-2-sulfonimidamide] was run?
A: The IC50 was 1 to 5 µM.

Q: For `CC(C)n1nc(S(N)(=O)=NC(=O)Nc2c3c(nc4c2CC[C@H]4C)CCC3)cc1CO` (single isomer, unassigned) [Example 643, (R) or (S)-5-(hydroxymethyl)-1-isopropyl-N′-(((R)-3-methyl-1,2,3,5,6,7-hexahydrodicyclopenta[b,e]pyridin-8-yl)carbamoyl)-1H-pyrazole-3-sulfonimidamide], which IC50 [6] is on record?
A: The IC50 was 1 to 5 µM.

Q: How did the IC50 [5] turn out when `Cc1c(C2(C)CC2)nc2c(c1NC(=O)N=S(N)(=O)c1cnc(C(C)(O)CO)s1)CCC2` (stereo not shown) [Compound 707] was run?
A: The IC50 was over 30 µM.

Q: With `Cc1c(C(F)(F)F)nc2c(c1NC(=O)N=S(N)(=O)c1cnn3c1OCCC3)CCC2` (stereo not shown) [Example 565, N′-((3-methyl-2-(trifluoromethyl)-6,7-dihydro-5H-cyclopenta [b]pyridin-4-yl)carbamoyl)-6,7-dihydro-5H-pyrazolo[5,1-b][1,3]oxazine-3-sulfonimidamide] as the compound, how does the IC50 [6] read?
A: Its IC50 is 5 to 30 µM.

Q: For `Cc1c(C(F)(F)F)nc2c(c1NC(=O)N=S(N)(=O)c1cnc(C(C)(O)CO)s1)CCC2` (single isomer, unassigned) [Compound 605a, (S, RS) or (R, RS) 2-(-1,2-dihydroxypropan-2-yl)-N′-((3-methyl-2-(trifluoromethyl)-6,7-dihydro-5H-cyclopenta[b]pyridin-4-yl)carbamoyl)thiazole-5-sulfonimidamide], which IC50 [4] is on record?
A: Its IC50 is 0.2 to 1 µM.

Q: `Cc1cc(C(C)(C)O)sc1S(N)(=O)=NC(=O)Nc1c2c(nc3c1CCC3)CCC2` (stereo not shown) [Compound 695, N-((1,2,3,5,6,7-hexahydrodicyclopenta[b,e]pyridin-8-yl)carbamoyl)-5-(2-hydroxypropan-2-yl)-3-methylthiophene-2-sulfonimidamide] was tested. Which IC50 [7] did it give?
A: The IC50 was 5 to 30 µM.

Q: `CC1CCc2c1nc1c(c2NC(=O)N=S(N)(=O)c2cc(C(C)(C)O)cs2)CCC1` (single isomer, unassigned) [Compound 141ba, (S,S) or (S,R)-4-(2-hydroxypropan-2-yl)-N′-((3-methyl-1,2,3,5,6,7-hexahy-drodicyclopenta[b,e]pyridin-8-yl)carbamoyl)thiophene-2-sulfonimidamide] was tested. Which IC50 [3] did it give?
A: The IC50 was 1 to 5 µM.

Q: How did the IC50 [4] turn out when `Cc1c(C(F)(F)F)nc2c(c1NC(=O)N=S(N)(=O)c1sc(C(C)(C)O)cc1F)CCC2` (single isomer, unassigned) [Compound 632b, (S) or (R)-3-Fluoro-5-(2-hydroxypropan-2-yl)-N′-((3-methyl-2-(trifluoromethyl)-6,7-dihydro-5H-cyclopenta[b]pyridin-4-yl)carbamoyl) thiophene-2-sulfonimidamide] was run?
A: The IC50 was 5 to 30 µM.

Q: Which IC50 [4] does the source give for `CC(C)c1nc(CO)c(S(N)(=O)=NC(=O)Nc2c3c(nc4c2CCC4(C)C)CCC3)s1` (single isomer, unassigned) [Compound 680b, (R) or (S)-N′-((3,3-dimethyl-1,2,3,5,6,7-hexahydrodicyclopenta [b,e]pyridin-8-yl)carbamoyl)-4-(hydroxymethyl)-2-isopropylthiazole-5-sulfonimidamide] here?
A: The IC50 was 1 to 5 µM.
